Measured values: patent US20200352923A1 (priority 2017, published 2020)

Test system: rat bladder muscle strips (detrusor)
Type: cell-based

CN(C)C(=O)Oc1ccc[n+](C)c1 [pyridostigmine]
drop in force from baseline after pyridostigmine: 13±6%
recovery of the force drop: about 50%
